# Target: T1, indoleamine 2,3-dioxygenase 1 (IDO1) (Homo sapiens, UniProt P14902)
# Test: % inhibition at […], capillary electrophoresis enzyme assay
# Type: biochemical
# T1 sequence (P14902 whole entry): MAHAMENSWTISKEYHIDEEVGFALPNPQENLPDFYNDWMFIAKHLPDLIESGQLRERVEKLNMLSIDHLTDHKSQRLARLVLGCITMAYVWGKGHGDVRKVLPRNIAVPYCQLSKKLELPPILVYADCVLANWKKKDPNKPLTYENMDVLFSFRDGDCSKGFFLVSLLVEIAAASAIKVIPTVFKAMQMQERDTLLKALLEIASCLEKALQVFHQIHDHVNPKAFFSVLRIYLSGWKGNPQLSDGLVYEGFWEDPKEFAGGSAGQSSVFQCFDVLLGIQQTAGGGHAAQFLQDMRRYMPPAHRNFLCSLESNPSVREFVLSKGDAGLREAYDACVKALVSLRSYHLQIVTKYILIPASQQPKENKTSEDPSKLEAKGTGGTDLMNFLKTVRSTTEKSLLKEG
row,Structure (SMILES),inhibition at 100 µM
1,"O=C(/C=C/c1ccc(O)c(O)c1)O[C@@H]1[C@H](O)C[C@@](O)(C(=O)O)C[C@H]1OC(=O)/C=C/c1ccc(O)c(O)c1 [compound 10, Isochlorogenic acid C]",10.9%
2,"COc1cc(/C=C/C(=O)O[C@@H]2C[C@@](O)(C(=O)O)C[C@@H](O)[C@@H]2O)ccc1O [compound 4, 3-O-Feruloylquinic acid]",16.4%
3,"O=C(/C=C/c1ccc(O)c(O)c1)O[C@H]1[C@H](O)C[C@](O)(C(=O)O)C[C@H]1OC(=O)/C=C/c1ccc(O)c(O)c1 [compound 8, Isochlorogenic acid B]",19.1%
4,"O=C(/C=C/c1ccc(O)c(O)c1)O[C@H]1[C@H](O)C[C@](O)(C(=O)O)C[C@H]1O [compound 3, Cryptochlorogenic acid]",11.8%
5,"O=C(/C=C/c1ccc(O)c(O)c1)O[C@@H]1C[C@@](O)(C(=O)O)C[C@@H](O)[C@@H]1O [compound 1, Neochlorogenic acid]",10.9%
6,"COc1cc(/C=C/C(=O)O[C@@H]2C[C@](O)(C(=O)O)C[C@@H](O)[C@H]2O)ccc1O [compound 6, 5-O-Feruloylquinic acid]",12.7%

# Target: T1, indoleamine 2,3-dioxygenase 1 (IDO1)
# Test: capillary electrophoresis enzyme assay
# Type: biochemical
row,Structure (SMILES),IC50
1,"O=C(/C=C/c1ccc(O)c(O)c1)O[C@@H]1C[C@](O)(C(=O)O)C[C@@H](O)[C@H]1O [compound 2, Chlorogenic acid]",308 µM
2,"COc1cc(/C=C/C(=O)O)ccc1O [compound 7, Ferulic acid]",114 µM

# — paper PMC9945408 (Food Chemistry: X, 2023)
